Results from patent US7732609B2, “5-(arylsulfonyl)-pyrazolopiperidines” (Elan Pharmaceuticals, Inc., priority 2005, dated 2010).

Biological target: T1, gamma-secretase (Homo sapiens, UniProt P49768)
T1 construct: The assay used a partially purified extract of IMR-32 cell membranes as the gamma-secretase enzyme preparation; endogenous in cells; host or cells: IMR-32 cell membranes (partially purified extract)
Assay: Gamma-secretase APP enzyme assay (MBP-C125 Swe cleavage at Aβ40 site, sandwich ELISA)
Type: biochemical
Conditions: IMR-32 cell membrane extract as enzyme; MBP-C125swe substrate; 2 h at 37° C; read-out: γAPP
Text: The gamma-secretase APP enzyme assay was designed to measure the specific proteolytic cleavage of an APP substrate (MBP-C125 Swe fusion protein) at the Aβ40 site. The assay used a partially purified extract of IMR-32 cell membranes as the gamma-secretase enzyme preparation and a recombinant fusion protein containing the C-terminal 125 amino acids of the Swedish variant of the APP (MBP-C125swe) as the substrate. This assay involved two steps beginning with the enzymatic reaction generating a cleavage product that was captured with an immobilized antibody specific for the neo-epitope Aβ40 site. The captured cleavage product was then detected in a sandwich ELISA assay with a biotinylated reporter antibody that is specific to Aβ (17-28). Streptavidin-linked alkaline phosphatase was then added that would generate a fluorescent signal proportional to the amount of cleavage product. This assay was used to discover small molecule inhibitors of gamma-secretase.
Briefly, a 149 mg/ml solution of BIGCHAP detergent was made with water at 42° C. and then rotated for 30 minutes at the same temperature. This warmed solution of BigCHAPS(N,N-Bis(3-D-gluconamidopropyl)cholamide) detergent was used to dissolve Brain Extract Type-V (lipid containing a minimum of 40% phosphatidylethanolamine) from Sigma (St. Louis, Mo.) to a concentration of 8 mg/ml. This solution containing BigCHAPS and lipid at 8 mg/ml is then diluted to 0.53 mg/ml lipid with a pre-warmed solution of Hepes and sodium chloride. This final solution containing Hepes buffer, sodium chloride, BigCHAPS detergent and lipid is used to create working solutions of both gamma-secretase (25 Units) and the MBP-C125 substrate (0.05 mg/ml).
Gamma-secretase was then added to a 96-well micro-titre plate and then incubated with various concentrations of inhibitor for 30 minutes at 37° C. MBPC125 substrate was then added to initiate the reaction that would run for two hours at 37° C. The reaction was quenched with the addition of SDS to a final concentration of 0.1% and then 100 μl of the reaction mixture was transferred to a capture ELISA plate and incubated overnight at 4° C. Detection of the cleavage product was performed using a standard sandwich ELISA assay and quantified using a six point standard curve.

Row | Compound | IC50 [nM]
1 | CN(C)C(=O)OC[C@@H]1c2cnn(C(=O)N(C)C)c2CCN1S(=O)(=O)c1ccc(Cl)cc1 [(S)-(5-(4-chlorophenylsulfonyl)-1-(dimethylcarbamoyl)-4,5,6,7-tetrahydro-1H-pyrazolo[4,3-c]pyridin-4-yl)methyl dimethylcarbamate] | 150 to 300
2 | CCOC(=O)C1c2cn[nH]c2CC(CC)N1S(=O)(=O)c1ccc(Cl)cc1 (stereo not drawn) [ethyl 5-(4-chlorophenylsulfonyl)-6-ethyl-4,5,6,7-tetrahydro-1H-pyrazolo[4,3-c]pyridine-4-carboxylate] | < 50
3 | (4S,6R)-diethyl 5-(4-chlorophenylsulfonyl)-4,5,6,7-tetrahydro-1H-pyrazolo[4,3-c]pyridine-4,6-dicarboxylate | 50 to 150

Results, then the compound that gave them:

Row | IC50 [nM] | Compound
4 | < 50 | CC[C@H]1c2cn[nH]c2C[C@@H](COC(=O)N(C)C)N1S(=O)(=O)c1ccc(Cl)cc1 [((4S,6S)-5-(4-chlorophenylsulfonyl)-4-ethyl-4,5,6,7-tetrahydro-1H-pyrazolo[4,3-c]pyridin-6-yl)methyl dimethylcarbamate]
5 | 150 to 300 | CC[C@H]1Cc2[nH]ncc2[C@@H](COC(=O)N(C)C)N1S(=O)(=O)c1ccc(Cl)cc1 [((4S,6S)-5-(4-chlorophenylsulfonyl)-6-ethyl-4,5,6,7-tetrahydro-1H-pyrazolo[4,3-c]pyridin-4-yl)methyl dimethylcarbamate]
6 | 150 to 300 | CN(C)C(=O)OC[C@@H]1c2cn[nH]c2CCN1S(=O)(=O)c1ccc(Cl)cc1 [(S)-(5-(4-chlorophenylsulfonyl)-4,5,6,7-tetrahydro-1H-pyrazolo[4,3-c]pyridin-4-yl)methyl dimethylcarbamate]
